# Source: publication PMC4267740, “Unprecedented Therapeutic Potential with a Combination of A2A/NR2B Receptor Antagonists as Observed in the 6-OHDA Lesioned Rat Model of Parkinson's Disease” (PLoS ONE, 2014)
# “Also recorded” adds a separate entry of the source.
# Experiments:
# PD patients = details: cited from earlier work
# [1] = test system: unilaterally 6-OHDA-lesioned rats; design: method as in PMID 15081591; details: rotometer; cited from earlier work
# [2] = test system: Reserpine-induced akinesia; design: method as in PMID 9918703; details: cited from earlier work
# A2B = target: A2B; design: method as in PMID 21810444, PMID 9933143, PMID 17236762; details: in vitro binding; rat or human; cited from earlier work
# P-glycoprotein (Pgp) = test system: P-glycoprotein (Pgp); design: method as in earlier work; details: ref 62 (Preladenant), 49 (Merck 22); cited from earlier work
# cytochrome P-450 (CYP) = test system: cytochrome P-450 (CYP); design: method as in earlier work; details: ref 62 (Preladenant), 49 (Merck 22); cited from earlier work
# A1 = target: A1; design: method as in PMID 21810444, PMID 9933143, PMID 17236762; details: in vitro binding; rat or human; cited from earlier work
# [3] = test system: unilateral 6-OHDA-lesioned rats; test: Rearing counts in actometers, monotherapy (without L-Dopa); assay type: in vivo, rat
# Protocol: (§1) To protect norepinephrinergic neurons, animals were administered imipramine HCl (Sigma) 15 minutes before surgery. They were subsequently anesthetized with ketamine (Ceva, 75 mg/kg) and xylazine (Bayer, 10 mg/kg) and placed in stereotaxic frame (David Kopf Instrument). 6-OHDA was injected into the right ascending medial forebrain bundle at the following coordinates (in mm) relative to bregma and surface of the dura, AP = −3.5, ML = −1.5, DV = −8.7. Each rat received one injection of 6-OHDA (4 µg/µl) over a period of 5 minutes (0.5 µl/min) for a total of 10 µg per rat. Animals were monitored for 3 weeks to ensure full recovery and habituation to the environment and experimenters.
# (§2) On day 21 post surgery, all rats were challenged with a small dose of subcutaneously administered apomorphine (Sigma, 0.05 mg/kg). Rats showing more than 90 contralateral rotations (360°) over a 45-minute recording period were included in the study. […] For each experiment, rats were allocated to the different experimental groups in order to get the same mean level of basal activity measured at the apomorphine challenge amongst the different experimental groups.
# (§3) Drug-naïve separate rats were tested individually in clear acrylic chambers (LE8811 IR, Panlab). Locomotion was detected and measured by 16 infrared light-beam sensors located on each side of the enclosure at a height of 3 cm. Sensors were spaced such that the light beams formed a matrix of 15×15 squares over the surface. Activity counts were recorded on a computer and Acti-Track software (Actitrack, Panlab) was used to convert raw data into “distance traveled” and “rearing counts” for analysis as relevant dependent variables.
# (§4) Six different combinations of A2A/NR2B antagonists were tested without L-Dopa. For each combination, there were four different procedures: vehicle only; A2A antagonist followed by vehicle; vehicle followed by the NR2B antagonist and A2A antagonist followed by the NR2B antagonist. The drugs, doses and combinations are described in Table 3. After drug administration, rats were placed in actometers (open-field) for monitoring the general level of motor activity (distance traveled and rearing counts).
# (§5) Before undertaking the study, each A2A and NR2B antagonist was tested individually. The doses were selected on the basis of preliminary dose-response curves performed separately for each drug and submaximal dose (i.e. response observed is not at its maximal level) of each drug was selected for the combination studies. The two drugs were administered separately via an intraperitoneal (ip) injection with a 2-minute interval between the two drugs. Five minutes after the second injection, animals were placed in the testing cage for behavioural recording. Due to formulation and exposure issues, Tozadenant and Radiprodil had to be administered orally and therefore recording was started 60 minutes post dosing at this corresponds to maximum plasma concentrations. Eight drug-naïve animals were used for each of the four procedures; 32 in total for each combination. All behavioral experiments were conducted between 8.00 AM and 2.00 PM at the latest. Preliminary pharmacokinetic assays investigated the plasma and brain disposition of selected drugs administered alone or in combination (ie. Tozadenant/Radiprodil, and Sch-58261/Co-101244; 3 animals per group). Tozadenant and Radiprodil were measured in samples obtained 60 minutes after single oral administration at 30 mg/kg. Sch-58261 and Co-101244 were measured in samples collected 90 min after single intraperitoneal administration at 3 mg/kg.
# (§6) The effects of A2A and NR2B antagonists on the level of motor activity (i.e. distance traveled and rearing counts) were assessed with three-way mixed ANOVA, combining the A2A receptor antagonist (2 levels, vehicle and the A2A drug) and the NR2B antagonist (2 levels, vehicle and the NR2B drug) as between-group factors with the time as within-subjects factor (6 or 9 levels). […]
# A3 = target: A3; design: method as in PMID 21810444, PMID 9933143, PMID 17236762; details: in vitro binding; rat or human; cited from earlier work
# [4] = test system: unilateral 6-OHDA-lesioned rats; test: L-Dopa-induced contralateral rotations in rotometers, add-on therapy; assay type: in vivo, rat; details: add-on to L-Dopa 25 mg/kg ip, Preladenant 0.03 mg/kg ip
# Protocol: as §1, §2
# The rats tested one week earlier for general activity (actometers) were once again placed in clear acrylic individual chambers (50×45 cm) with the same treatment (drug and dose) than that previously received plus L-Dopa. Eight chambers were placed on a level, clear glass bottom, held by a robust frame, and were subdivided into four individual test cages of 25×22 cm. A removable acrylic plate served as a lid.
# Rotational behaviour was recorded using a home-made computerized system. Rats were fixed in a harness and linked to mechanical sensors connected directly to a computer. Each 360° clock-wise or counter clock-wise turn was automatically recorded for up to 120 minutes at the maximum. Throughout the experiments, rats were allocated to individual test cages.
# Four different combinations were administered as add-on treatment to a low active dose of L-Dopa (25 mg/kg, ip) without any dopa decarboxylase inhibitor to avoid any additional pharmacokinetic interaction. The doses of the compounds were selected on the basis of preliminary dose-response curves performed separately for each drug. To avoid ceiling effect with L-Dopa, only submaximal doses of each drug were selected for testing (as it was done previously for monotherapy). Eight L-Dopa naïve animals were tested for each of the four pharmacological condition: vehicle and L-Dopa (25 mg/kg); A2A antagonist followed by vehicle and L-Dopa; vehicle followed by NR2B antagonist and L-Dopa; A2A antagonist followed by NR2B and L-Dopa. Due to the dominance of the L-Dopa-effect on the lesioned striatum, the unilateral 6-OHDA-lesioned rats rotated after the drugs administration and behavioral activity was recorded in rotometers (i.e. level of contralateral rotations).
# All drugs were administered i.p. 25 minutes before behavioural recording, except for the Tozadenant and Radiprodil combination which was administered orally 60 minutes before behavioural recording. As Radiprodil was administered orally, L-Dopa was given 45 minutes after the Radiprodil injection whereas for the other combinations L-Dopa was given 15 minutes after the NR2B drug. The drugs, the doses and the combinations given in co-administration to L-Dopa are described in Table 4 .
# The impact of treatment with A2A or NR2B receptor antagonists, given alone or in combination, on the effect of L-Dopa on contralateral rotations was also analysed with a three-way mixed ANOVA. The ANOVA included the A2A and the NR2B receptor antagonists (both, 2 levels, vehicle and the drug) as between-group factors combined with time (12 levels) as within-subjects factor. […] The ability of the combination to increase and prolong the activity of L-Dopa was also explored. Consequently, drug effects were analyzed for every 10-min time interval. […]
# [5] = test system: unilateral 6-OHDA-lesioned rats; test: Distance traveled in actometers, monotherapy (without L-Dopa); assay type: in vivo, rat
# Protocol: as §1, §2, §3, §4, §5, §6
# [6] = test system: haloperidol-induced catalepsy; details: threshold dose of Theophylline; cited from earlier work
# P-gp = test system: P-gp; design: method as in PMID 18552277; details: human subjects; cited from earlier work
# A2A = target: A2A; design: method as in PMID 21810444, PMID 9933143, PMID 17236762; details: in vitro binding; rat or human; cited from earlier work
# CYP3A = test system: CYP3A; design: method as in PMID 18552277; details: human subjects; cited from earlier work
# [7] = test system: rats with a unilateral lesion of the medial forebrain bundle; details: cited from earlier work
# [8] = test system: L-Dopa-induced dyskinesia; design: method as in PMID 18759356; details: randomized double-blind placebo-controlled clinical trial; cited from earlier work
# [9] = Preladenant 0.1 mg/kg ip, Merck 22 0.3 mg/kg ip
# [10] = Preladenant 0.1 mg/kg ip, Radiprodil 1 mg/kg ip
# [11] = Istradefylline 0.3 mg/kg ip, Co-101244 1 mg/kg ip
structure (smiles),measurement,setting,value
Cc1ccc(COC(=O)N2CC[C@H](CNc3ncccn3)[C@H](F)C2)cc1 [MK-0657],Result of clinical study as monotherapy,PD patients; single clinical study,negative results
CC(C(O)c1ccc(O)cc1)N1CCC(Cc2ccccc2)CC1 (stereo not drawn) [Ro 25–6981],Induction of contralateral rotations as monotherapy,[1],inducing contralateral rotations
CC(C(O)c1ccc(O)cc1)N1CCC(Cc2ccccc2)CC1 (stereo not drawn) [Ifenprodil],Effect on Reserpine-induced akinesia,[2],counteract Reserpine-induced akinesia at the highest dose tested
COCCOc1ccc(N2CCN(CCn3ncc4c3nc(N)n3nc(-c5ccco5)nc43)CC2)cc1 [Preladenant],Ki,A2B,> 1700 nM
same,In-vitro drug interactions with P-glycoprotein (Pgp),P-glycoprotein (Pgp),devoid of in-vitro risks of drug interactions
same,In-vitro drug interactions with cytochrome P-450 (CYP),cytochrome P-450 (CYP),devoid of in-vitro risks of drug interactions
same,Ki,A1,> 1000 nM
same,"Rearing counts, drugs alone vs vehicle, p (Newman-Keuls)",[3]; [9],Preladenant p<0.001
same,"Rearing counts, drugs main effect, p (three-way mixed ANOVA)",[3]; [9],p<0.001
same,"Rearing counts, drugs × time effect, p (three-way mixed ANOVA)",[3]; [9],p<0.001
same,"Rearing counts, drugs alone vs vehicle, p (Newman-Keuls)",[3]; [10],Preladenant p<0.001
same,"Rearing counts, drugs main effect, p (three-way mixed ANOVA)",[3]; [10],p<0.001
same,"Rearing counts, drugs × time effect, p (three-way mixed ANOVA)",[3]; [10],Not significant
same,Ki,A3,> 1000 nM
same,"Contralateral rotations, drugs alone vs vehicle, p (planned contrasts on each 10-min interval)",[4]; Merck 22 1 mg/kg ip,Not significant
same,"Contralateral rotations, drugs main effect, p (three-way mixed ANOVA)",[4]; Merck 22 1 mg/kg ip,p<0.05
same,"Contralateral rotations, drugs × time effect, p (three-way mixed ANOVA)",[4]; Merck 22 1 mg/kg ip,p<0.001
same,"Contralateral rotations, drugs alone vs vehicle, p (planned contrasts on each 10-min interval)",[4]; Radiprodil 0.3 mg/kg ip,Not significant
same,"Contralateral rotations, drugs main effect, p (three-way mixed ANOVA)",[4]; Radiprodil 0.3 mg/kg ip,p<0.01
same,"Contralateral rotations, drugs × time effect, p (three-way mixed ANOVA)",[4]; Radiprodil 0.3 mg/kg ip,p<0.001
same,"Distance traveled, drugs alone vs vehicle, p (Newman-Keuls)",[5]; [9],Preladenant: p<0.001
same,"Distance traveled, drugs main effect, p (three-way mixed ANOVA)",[5]; [9],p<0.001
same,"Distance traveled, drugs × time effect, p (three-way mixed ANOVA)",[5]; [9],Not significant
same,"Distance traveled, drugs alone vs vehicle, p (Newman-Keuls)",[5]; [10],Both p<0.05
same,"Distance traveled, drugs main effect, p (three-way mixed ANOVA)",[5]; [10],p<0.001
same,"Distance traveled, drugs × time effect, p (three-way mixed ANOVA)",[5]; [10],Not significant
same,"Distance traveled, drug alone in comparison to vehicle-treated controls",[5]; drug administered alone,significant increase
C[C@]12N[C@H](Cc3ccccc31)c1ccccc12 [dizocilpine],Effect of co-administration with Theophylline on haloperidol-induced catalepsy,[6],potentiate the effects of a threshold dose of Theophylline
CCn1c(=O)c2c(nc(/C=C/c3ccc(OC)c(OC)c3)n2C)n(CC)c1=O [Istradefylline],Ki,A2B,> 10000 nM
same,Inhibition of P-gp,P-gp,modest inhibition
same,Ki,A1,841 nM
same,Clinical efficacy when combined with L-Dopa,PD patients; PD patients,demonstrated significant efficacy
same,Clinical benefit as monotherapy (without L-Dopa),PD patients; de-novo PD patients,did not produce statistically significant benefits
same,Ki,A2A,12 nM
same,"Rearing counts, drugs alone vs vehicle, p (Newman-Keuls)",[3]; [11],"Istradefylline, p<0.01"
same,"Rearing counts, drugs main effect, p (three-way mixed ANOVA)",[3]; [11],p<0.001
same,"Rearing counts, drugs × time effect, p (three-way mixed ANOVA)",[3]; [11],p<0.01
same,Ki,A3,4470 nM
same,Effect on CYP3A-mediated drug metabolism,CYP3A,does not impair
same,"Distance traveled, drugs alone vs vehicle, p (Newman-Keuls)",[5]; [11],not all drugs when administered alone improved distance traveled; also recorded: Not significant
same,"Distance traveled, drugs main effect, p (three-way mixed ANOVA)",[5]; [11],p<0.001
same,"Distance traveled, drugs × time effect, p (three-way mixed ANOVA)",[5]; [11],Not significant
O=C(O)C1CN(CCCP(=O)(O)O)CCN1 (stereo not drawn) [CPP],Effect on stepping deficit,[7],ameliorate the stepping deficit
C/C(=C\C(N)C(=O)O)CP(=O)(O)O (stereo not drawn) [CGP37849],Effect of co-administration with Theophylline on haloperidol-induced catalepsy,[6],potentiate the effects of a threshold dose of Theophylline
"C[C@@H]([C@@H](O)c1ccc(O)cc1)N1CCC(O)(c2ccccc2)CC1 [CP-101,606]",Efficacy in counteracting L-Dopa-induced dyskinesia,[8],demonstrated efficacy
